Test results reported in patent US20140308313A1 (priority 2006, published 2014).

Test system: IgG1 and IgG2a antibodies to TT
Design: species or system mice
Conditions: mouse, in vivo

## CCCCCCCCCCCCCCCCCCCCCCCCCC(=O)N[C@@H](CO[C@H]1OC(CO)[C@H](O)C(O)C1O)[C@H](O)[C@@H](O)CCCCCCCCCCCCCC (stereo partly drawn) [α-GC, α-galactosylceramide]
  production of IgG1 and IgG2a antibodies compared to CFA, CpG, MF59 and Alum: overall as potent as the above benchmark adjuvants
